Values after ≈ are worked out from the molar mass of the structure shown. Read-outs that look alike come from different tables or passages of the source.
How the values were obtained:
[1] = tested on: Veillonella spp. clinical isolates; assay: MIC distribution against clinical isolates; type: cell-based; settings: 30 Veillonella spp. isolates
Source text: (n=19 V. parvula, n=9 Veillonella spp., n=1 Veillonella dispr., n=1 V. atypica) clinical isolates (μg/mL).
As used herein, “minimum inhibitory concentration” or “MIC” refers to the lowest concentration of an antimicrobial agent, for example, an antimicrobial agent as described herein, required to inhibit the growth of an organism. […] “MIC90” represents the MIC value at which ≥90% of the strains within a test population are inhibited; the 90th percentile.
Many susceptibility testing methods are known in the art and can be used as described herein (see, e.g., Jorgensen and Ferraro (2009) Clinical Infectious Diseases 49:1749-1755; and Maurer et al. (2017) Infectious Disease Reports 9:6839; the entire contents of each of the foregoing are incorporated herein by reference). For example, antimicrobial susceptibility can be determined using conventional culture based methods such as the broth or agar dilution test. In these dilution tests, the bacterial isolate of interest is inoculated onto different media that include serial dilutions of an antimicrobial agent, and incubated under appropriate conditions (e.g., overnight at 37° C.) to allow for growth to occur. Following the incubation period, the media is examined to determine bacterial growth. The lowest concentration of antibiotic that prevents growth represents the minimal inhibitory concentration (MIC). Broth dilution tests can be miniaturized and mechanized allowing for reproducibility and high throughput.

[2] = tested on: Prevotella spp.; assay: Agar dilution MIC, 30 clinical isolates; type: cell-based; settings: 30 Prevotella spp. clinical isolates
[3] = tested on: S. pneumoniae ATCC 49619; assay: Broth microdilution MIC (time-kill study); type: cell-based, Streptococcus pneumoniae; settings: S. pneumoniae ATCC 49619
[4] = tested on: Streptococcus spp. spontaneous mutants; assay: organism not typed; type: cell-based
Summary of the method: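 Spontaneous mutants from drug selection plates were tested by CLSI broth microdilution in MHB II with two-fold serial drug dilutions. Inoculum was about 5×10^5 CFU/mL, incubated aerobically at 35° C. for 18-20 hr. MIC was the lowest concentration inhibiting visible growth.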

Cc1ncc([N+](=O)[O-])n1CCO [MTZ]
Cumulative percentage of isolates inhibited at MIC ([1]; MIC 1 μg/mL): 3.3%
Number of test isolates at MIC ([1]; MIC 1 μg/mL): 1
Cumulative percentage of isolates inhibited at MIC ([1]; MIC 2 μg/mL): 33.3%
Number of test isolates at MIC ([1]; MIC 2 μg/mL): 9
Cumulative percentage of isolates inhibited at MIC ([1]; MIC 4 μg/mL): 83.3%
Number of test isolates at MIC ([1]; MIC 4 μg/mL): 15
Cumulative percentage of isolates inhibited at MIC ([1]; MIC >32 μg/mL): 100.0%
Number of test isolates at MIC ([1]; MIC >32 μg/mL): 5
% R [2]: 3%
% S [2]: 97%
MIC50 [2]: 1 µg/mL (≈ 5.84 µM)
MIC90 [2]: 8 µg/mL (≈ 46.7 µM)
MIC range [2]: 0.12 to 32 µg/mL
Mode ([2]; modal MIC): 1 µg/mL

CN[C@H](CC(C)C)C(=O)N[C@H]1C(=O)N[C@@H](CC(N)=O)C(=O)N[C@H]2C(=O)N[C@H]3C(=O)N[C@H](C(=O)N[C@H](C(=O)O)c4cc(O)cc(O)c4-c4cc3ccc4O)[C@H](O)c3ccc(c(Cl)c3)Oc3cc2cc(c3O[C@@H]2O[C@H](CO)[C@@H](O)[C@H](O)[C@H]2O[C@H]2C[C@](C)(N)[C@H](O)[C@H](C)O2)Oc2ccc(cc2Cl)[C@H]1O [vancomycin, Vancomycin]
MIC ([3]; Streptococcus pneumoniae, ATCC49619, read-out: MIC): 0.25 µg/mL (≈ 0.173 µM)

Penicillin
MIC ([4]; S. agaloctiae ATCC 13813, selected on rifaximin 4X MIC, Colony A): 0.015 µg/mL
MIC ([4]; S. agaloctiae ATCC 13813, selected on rifaximin 4X MIC, Colony B): 0.015 µg/mL
MIC ([4]; S. agaloctiae ATCC 13813, selected on rifaximin 8X MIC, Colony A): 0.015 µg/mL
MIC ([4]; S. agaloctiae ATCC 13813, selected on rifaximin 8X MIC, Colony B): 0.015 µg/mL
MIC ([4]; S. agaloctiae ATCC 13813 Parent): 0.015 µg/mL
MIC ([4]; S. pneumoniae ATCC 49619, selected on rifaximin 4X MIC, Colony A): 0.12 µg/mL
MIC ([4]; S. pneumoniae ATCC 49619, selected on rifaximin 4X MIC, Colony B): 0.25 µg/mL
MIC ([4]; S. pneumoniae ATCC 49619, selected on rifaximin 8X MIC, Colony A): 0.25 µg/mL
MIC ([4]; S. pneumoniae ATCC 49619, selected on rifaximin 8X MIC, Colony B): 0.25 µg/mL
MIC ([4]; S. pneumoniae ATCC 49619 Parent): 0.25 µg/mL
MIC ([4]; S. pyogenes ATCC 49399, selected on rifaximin 4X MIC, Colony A): 0.004 µg/mL
MIC ([4]; S. pyogenes ATCC 49399, selected on rifaximin 4X MIC, Colony B): 0.008 µg/mL
MIC ([4]; S. pyogenes ATCC 49399, selected on rifaximin 8X MIC, Colony A): 0.004 µg/mL
MIC ([4]; S. pyogenes ATCC 49399, selected on rifaximin 8X MIC, Colony B): 0.004 µg/mL
MIC ([4]; S. pyogenes ATCC 49399 Parent): 0.008 µg/mL

piperacillin/tazobactam [piperacillin-tazobactam]
MIC [3]: 1 µg/mL

From patent US20210386367A1, “DEVICES AND SYSTEMS FOR GASTROINTESTINAL MICROBIOME DETECTION AND MANIPULATION” (Progenity, Inc., priority 2018, published 2021)
